Measurements published in patent US20200172473A1, “DUAL MODULATORS OF FARNESOID X RECEPTOR AND SOLUBLE EPOXIDE HYDROLASE” (JOHANN WOLFGANG GOETHE-UNIVERSITÄT FRANKFURT AM MAIN, priority 2017, published 2020).
Several values for one entry are separate records, joined by “and”; a condition that tells them apart may be missing. Equal entries are not always repeated.

Key:
human FXR = target: T1, human FXR (Homo sapiens, UniProt Q96RI1); experiment: full-length FXR reporter gene (transactivation) assay in HeLa cells; assay type: cell-based; settings: for Emax: HeLa, read-out: FXR activation max. rel. activation (converted); for EC50: full-length FXR reporter gene assay, HeLa cells, read-out: FXR activation EC50; for FXR % activation at indicated conc.: 50 μM, relative to GW4064 (1c) at 3 μM = 100%
T1 construct: characterized in a full-length (fl) FXR reporter gene assay in HeLa cells; expressed in transfected cells; host or cells: HeLa
T1 sequence (Q96RI1 1-486): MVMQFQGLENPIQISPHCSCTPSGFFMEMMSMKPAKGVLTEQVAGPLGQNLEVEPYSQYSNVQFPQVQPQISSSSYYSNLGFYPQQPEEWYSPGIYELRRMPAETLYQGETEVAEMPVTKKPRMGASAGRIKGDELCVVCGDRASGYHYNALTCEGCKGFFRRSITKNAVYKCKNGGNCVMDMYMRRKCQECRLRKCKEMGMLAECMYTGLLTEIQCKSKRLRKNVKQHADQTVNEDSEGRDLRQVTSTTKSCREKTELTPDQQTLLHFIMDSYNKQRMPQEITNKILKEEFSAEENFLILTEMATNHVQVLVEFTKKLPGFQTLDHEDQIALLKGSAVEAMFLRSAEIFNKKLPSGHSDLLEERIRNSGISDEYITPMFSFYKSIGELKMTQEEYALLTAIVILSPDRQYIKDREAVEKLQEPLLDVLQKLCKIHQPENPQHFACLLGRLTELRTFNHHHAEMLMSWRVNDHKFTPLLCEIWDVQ
T1 sequence (P19793 1-462 partner): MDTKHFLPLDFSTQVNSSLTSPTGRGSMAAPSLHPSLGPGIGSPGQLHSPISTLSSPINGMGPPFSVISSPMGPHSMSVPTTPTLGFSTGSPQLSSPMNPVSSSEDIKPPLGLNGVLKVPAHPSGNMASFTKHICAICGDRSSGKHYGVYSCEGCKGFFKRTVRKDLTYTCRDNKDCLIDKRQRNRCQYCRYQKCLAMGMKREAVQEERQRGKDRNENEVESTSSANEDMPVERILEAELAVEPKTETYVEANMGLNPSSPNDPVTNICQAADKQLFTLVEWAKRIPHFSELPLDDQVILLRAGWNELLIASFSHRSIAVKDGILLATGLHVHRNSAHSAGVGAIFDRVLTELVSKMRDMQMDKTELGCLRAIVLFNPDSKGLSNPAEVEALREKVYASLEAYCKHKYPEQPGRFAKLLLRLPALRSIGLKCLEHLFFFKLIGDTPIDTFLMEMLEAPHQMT
Source text: (§1) This assay is based on a reporter construct containing a firefly luciferase under the control of the FXR response element from bile salt export protein (BSEP). FXR and its hetero dimer partner retinoid X receptor (RXR) as expression constructs under the control of a CMV promoter as well as a constitutively expressed renilla luciferase (SV40 promoter) for normalization and toxicity control were co-transfected. […] The sEH inhibitory potency of the test compounds was quantified in a fluorescence-based assay using recombinant enzyme and the fluorogenic sEH substrate PHOME^37 that is hydrolyzed to a fluorescent 6-methoxynaphtaldehyde by sEH.
Plasmids: pcDNA3-hFXR contains the sequence of human FXR and was already published elsewhere.^47 pGL3 basic (Promega Corporation, Fitchburg, Wis., USA) was used as a reporter plasmid, with a shortened construct of the promotor of the bile salt export protein (BSEP) cloned into the SacI/NheI cleavage site in front of the luciferase gene.^48 pRL-V40 (Promega) was transfected as a control for normalization of transfection efficiency and cell growth. pSG5-hRXR was already published elsewhere as well.^49
Assay procedure: HeLa cells were grown in DMEM high glucose supplemented with 10% FCS, sodium pyruvate (1 mM), penicillin (100 U/mL) and streptomycin (100 μg/mL) at 37° C. and 5% CO2. […] Transient transfection of HeLa cells with BSEP-pGL3, pRL-SV40 and the expression plasmids pcDNA3-hFXR and pSG5-hRXR was carried out using calcium phosphate transfection method. […] Each concentration was tested in triplicate wells and each experiment was repeated independently at least three times. […] Luminescence was measured with a Tecan Infinite M200 luminometer (Tecan Deutschland GmbH, Crailsheim, Germany). Normalization of transfection efficiency and cell growth was done by division of firefly luciferase data by renilla luciferase data multiplied by 1000 resulting in relative light units (RLU). Fold activation was obtained by dividing the mean RLU of the tested compound at a respective concentration by the mean RLU of untreated control. […] EC50 and standard error of the mean values were calculated with the mean relative activation values of at least three independent experiments by SigmaPlot 10.0 (Systat Software GmbH, Erkrath, Germany) using a four parameter logistic regression.

recombinant human sEH = target: T2, recombinant human sEH (Homo sapiens, UniProt P34913); experiment: fluorescence-based sEH activity assay with PHOME substrate; assay type: biochemical; settings: for inhibition at 50 µM: read-out: sEH % inhibition at indicated conc.; for IC50: recombinant human sEH, PHOME, read-out: sEH inhibition IC50
T2 sequence (P34913 1-555): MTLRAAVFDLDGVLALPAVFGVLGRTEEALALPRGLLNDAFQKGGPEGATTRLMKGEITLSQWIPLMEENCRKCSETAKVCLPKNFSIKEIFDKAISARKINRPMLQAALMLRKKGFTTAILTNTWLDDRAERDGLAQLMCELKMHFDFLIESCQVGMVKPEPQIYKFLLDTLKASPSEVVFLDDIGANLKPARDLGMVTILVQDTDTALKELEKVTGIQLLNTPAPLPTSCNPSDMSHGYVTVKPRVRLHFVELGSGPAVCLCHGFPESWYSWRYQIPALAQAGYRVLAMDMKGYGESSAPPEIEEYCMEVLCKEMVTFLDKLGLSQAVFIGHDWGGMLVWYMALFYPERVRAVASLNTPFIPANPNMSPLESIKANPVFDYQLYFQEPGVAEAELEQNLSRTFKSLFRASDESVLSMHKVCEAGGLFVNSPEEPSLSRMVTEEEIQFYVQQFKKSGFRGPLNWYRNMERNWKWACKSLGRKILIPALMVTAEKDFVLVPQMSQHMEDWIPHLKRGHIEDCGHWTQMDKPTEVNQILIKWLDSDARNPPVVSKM
Source text: as §1
The sEH inhibitory potency of the compounds were determined in a fluorescence-based 96-well sEH activity assay using recombinant human enzyme^50,51. Non-fluorescent PHOME (3-phenylcyano-(6-methoxy-2-naphthalenyl)methyl ester 2-oxiraneacetic acid; Cayman Chemicals) which can be hydrolyzed by the sEH to fluorescent 6-methoxynaphthaldehyde served as substrate. Recombinant human sEH (in Bis-Tris buffer, pH 7, with 0.1 mg/mL BSA containing a final concentration of 0.01% Triton-X 100) was pre-incubated with test compounds (in DMSO, final DMSO concentration: 1%) for 30 min at room temperature. […] A blank control (no protein and no compound) as well as a positive control (no compound) were executed. All experiments were conducted in triplicate and repeated in at least three independent experiments. For IC50 calculation, dose-response curves of increasing compound concentrations were recorded.

Row | Structure (SMILES) | Emax (human FXR) [%] | other results
1 | CC(C)(C)c1ccc(C(=O)NCc2ccc(S(N)(=O)=O)cc2F)cc1 [compound 55] | 34 | 
2 | C[S+]([O-])c1ccc(CNC(=O)c2ccc(C(C)(C)C)cc2)cc1 (stereo not shown) [compound 52] | 24 | 
3 | CN(C)C(=O)c1ccc(CNC(=O)c2ccc(C(C)(C)C)cc2)cc1 [compound 39] | 17 ± 100 | 
4 | CC(C)(C)c1ccc(C(=O)NCc2ccc(OC(F)(F)F)cc2)cc1 [compound 50] | 26 | 
5 | CC(C)(C)c1ccc(C(=O)NCc2ccc(C(N)=O)cc2)cc1 [compound 37] | 27 | 
6 | CC(NC(=O)c1ccc(C(C)(C)C)cc1)c1ccc(C(=O)O)cc1 (stereo not shown) [compound 32] | 24 | inhibition at 50 µM (recombinant human sEH): 37 ± 1%
7 | O=C(O)c1ccc(CNC(=O)c2cccc(-c3ccccc3)c2)cc1 [compound 12] | 14 | 
8 | CC(C)S(=O)(=O)Nc1ccc(CNC(=O)c2ccc(C(C)(C)C)cc2)c(Cl)c1 [compound 81, 4-(tert-Buty)-N-(2-chloro-4-(isopropylsulfonamide)benzyl)-benzamide] | 11 | IC50 (recombinant human sEH): 11 ± 0.3 nM; EC50 (human FXR): 420 ± 20 nM
9 | CC(C)(C)c1ccc(C(=O)NCc2ccc(S(C)(=O)=O)cc2)cc1 [compound 53] | 34 | 
10 | CN(C)c1ccc(C(=O)NCc2ccc(NS(C)(=O)=O)cc2Cl)cc1 [compound 83, 4-(Dimethylamino)-N-(2-chloro-4-(methylsulfonamido)benzyl)benzamide] | 23 | IC50 (recombinant human sEH): 45 ± 2 nM; EC50 (human FXR): 1460 ± 23 nM
11 | CC(C)(C)c1ccc(C(=O)NCc2ccc(C(=O)O)c(Cl)c2)cc1 [compound 28] | 21 | inhibition at 50 µM (recombinant human sEH): 50 ± 1%
12 | CC(C)(C)c1ccc(C(=O)NCc2ccc(CC(=O)O)cc2)cc1 [compound 23] | 19 | 
13 | CC(C)(C)c1ccc(C(=O)NCc2ccc(NS(C)(=O)=O)cc2)cc1 [compound 46] | 22 | 
14 | O=C(O)c1ccc(CNC(=O)c2ccc(Cl)c(Cl)c2)cc1 [compound 14] |  | FXR % activation at indicated conc. (human FXR): inactive (50 μM)
15 | CSc1ccc(CNC(=O)c2ccc(C(C)(C)C)cc2)cc1 [compound 51] | 33 | IC50 (recombinant human sEH): ~100 nM; EC50 (human FXR): ~100 nM
16 | CCOc1ccc(CNC(=O)c2ccc(C(C)(C)C)cc2)cc1 [compound 48] | 31 | 
17 | CC(C)(C)c1ccc(C(=O)NCc2ccc(C(=O)O)cc2F)cc1 [compound 30] | 26 | 
18 | CC(C)(C)c1ccc(NC(=O)Nc2ccc(C(=O)O)cc2)cc1 [compound 21] | 14 | 
19 | CC(C)(C)c1ccc(C(=O)NCc2ccc(N)cc2)cc1 [compound 42] |  | FXR % activation at indicated conc. (human FXR): inactive (50 μM)
20 | CC(C)(C)c1ccc(C(=O)NCc2cccc(C(=O)O)c2)cc1 [compound 22] | 14 | inhibition at 50 µM (recombinant human sEH): 26 ± 2%
21 | CC(C)(C)c1ccc(C(=O)NCc2ccc(C=O)cc2)cc1 [compound 34] | 22 | 
22 | CC(C)(C)c1ccc(C(=O)NCc2ccc(N)cc2Cl)cc1 [69a, N-(4-Amino-2-chlorobenzyl)-4-(tert-butyl)benzamide] | 29 | IC50 (recombinant human sEH): 40 ± 6 nM; EC50 (human FXR): 46 nM and 45 nM

Row | Structure (SMILES) | Emax (human FXR) [%] | other results
23 | COc1ccc(C(=O)NCc2ccc(C(=O)O)cc2)cc1OC [compound 15] | 18 | inhibition at 50 µM (recombinant human sEH): 26 ± 2%
24 | CC(=O)NS(=O)(=O)c1ccc(CNC(=O)c2ccc(C(C)(C)C)cc2)cc1 [compound 45] |  | FXR % activation at indicated conc. (human FXR): inactive (50 μM)
25 | CC(C)(C)c1ccc(C(=O)NCc2ccc(CCC(=O)O)cc2)cc1 [compound 24] | 16 | 
26 | Cc1cc(C(=O)O)ccc1CNC(=O)c1ccc(C(C)(C)C)cc1 [compound 29] |  | FXR % activation at indicated conc. (human FXR): inactive (50 μM)
27 | CC(C)(C)c1ccc(C(=O)NCc2ccc(C(=O)O)cc2)cc1 [compound 18] | 13 | 
28 | CC(=O)c1ccc(CNC(=O)c2ccc(C(C)(C)C)cc2)cc1 [compound 35] | 29 | 
29 | COc1cc(C(=O)NCc2ccc(C(=O)O)cc2)ccc1C(C)(C)C [compound 20] | 23 | 
30 | CC(C)Oc1ccc(CNC(=O)c2ccc(C(C)(C)C)cc2)cc1 [compound 49] | 26 | 
31 | CC(C)(C)c1ccc(C(=O)NCc2ccc(C#N)cc2)cc1 [compound 36] |  | FXR % activation at indicated conc. (human FXR): inactive (50 μM)
32 | CC(=O)Nc1ccc(CNC(=O)c2ccc(C(C)(C)C)cc2)cc1 [compound 40] | 31 | 
33 | CC(C)(C)c1ccc(C(=O)NCc2ccc(CO)cc2)cc1 [compound 33] |  | FXR % activation at indicated conc. (human FXR): inactive (50 μM)
34 | CC(C)(C)c1ccc(C(=O)NCc2ccc(S(N)(=O)=O)cc2)cc1 [compound 44] | 16 | 
35 | CC(C)(C)c1ccc(C(=O)NCc2ccc(-c3nnn[nH]3)cc2)cc1 [compound 43] | 23 | 
36 | CC(C)(C)c1ccc(C(=O)NCc2ccc(C(=O)O)c(F)c2)cc1 [compound 27] | 28 | 
37 | CNC(=O)c1ccc(CNC(=O)c2ccc(C(C)(C)C)cc2)cc1 [compound 38] | 29 | 
38 | CC(C)(C)c1ccc(C(=O)NCc2ccc(SC(F)(F)F)cc2)cc1 [compound 54] | 19 | 
39 | CC(C)(C)c1ccc(C(=O)NCc2ccc(C(=O)O)cc2Cl)cc1 [compound 31] | 25 | 
40 | COc1ccc(CNC(=O)c2ccc(C(C)(C)C)cc2)cc1 [compound 47] | 19 | 
41 | CC(C)(C)c1ccc(C(=O)NCc2ccc(NC(=O)C(F)(F)F)cc2)cc1 [compound 41] | 20 | 
42 | CC(C)(C)c1ccc(C(=O)NCc2ccc(OCC(=O)O)cc2)cc1 [compound 25] | 21 | 
43 | O=C(O)c1ccc(CNC(=O)c2ccc(-c3ccccc3)cc2)cc1 [compound 13] | 24 | 
